Measured values: US5770382A, “Tricyclic retinoids, methods for their production and use” (Ligand Pharmaceuticals, Inc., priority 1995, dated 1998)

How the values were obtained:
Format in all cases: cell-based
[1] = tested on: RXRs; experiment: Co-transfection assay, summary for the RXRs
Method: Utilizing the "cis-trans" or "co-transfection" assay described by Evans et al., Science, 240:889-95 (May 13, 1988), the disclosure of which is herein incorporated by reference, the retinoid compounds of the present invention were tested and found to have strong, specific activity as either selective RAR agonists, selective RXR agonists, or as pan-agonist activators of both RAR and RXR receptors. This assay is described in further detail in U.S. Pat. Nos. 4,981,784 and 5,071,773, the disclosures of which are incorporated herein by reference.
The co-transfection assay provides a method for identifying functional agonists which mimic, or antagonists which inhibit, the effect of native hormones, and quantifying their activity for responsive IR proteins. In this regard, the co-transfection assay mimics an in vivo system in the laboratory. Importantly, activity in the co-transfection assay correlates very well with known in vivo activity, such that the co-transfection assay functions as a qualitative and quantitative predictor of a tested compounds Ln vivo pharmacology. See, e.g., T. Berger et al. 41 J. Steroid Biochem. Molec. […]
The co-transfection assay can detect small molecule agonists or antagonists of target IRs. […] This activity can be conveniently measured, e.g., by increasing luciferase production, which reflects compound-dependent, IR-mediated increases in reporter transcription. […]

[2] = biological target: T1, RXRβ (Mus musculus, UniProt P28704); experiment: Co-transfection assay, RXRβ agonist activity; settings: CV-1 cells, 40 hours; read-out: RXRβ Pot (potency, EC50)
T1 construct: expressed in transfected cells; host or cells: CV-1 (African green monkey kidney fibroblasts)
T1 sequence (P28704 1-520): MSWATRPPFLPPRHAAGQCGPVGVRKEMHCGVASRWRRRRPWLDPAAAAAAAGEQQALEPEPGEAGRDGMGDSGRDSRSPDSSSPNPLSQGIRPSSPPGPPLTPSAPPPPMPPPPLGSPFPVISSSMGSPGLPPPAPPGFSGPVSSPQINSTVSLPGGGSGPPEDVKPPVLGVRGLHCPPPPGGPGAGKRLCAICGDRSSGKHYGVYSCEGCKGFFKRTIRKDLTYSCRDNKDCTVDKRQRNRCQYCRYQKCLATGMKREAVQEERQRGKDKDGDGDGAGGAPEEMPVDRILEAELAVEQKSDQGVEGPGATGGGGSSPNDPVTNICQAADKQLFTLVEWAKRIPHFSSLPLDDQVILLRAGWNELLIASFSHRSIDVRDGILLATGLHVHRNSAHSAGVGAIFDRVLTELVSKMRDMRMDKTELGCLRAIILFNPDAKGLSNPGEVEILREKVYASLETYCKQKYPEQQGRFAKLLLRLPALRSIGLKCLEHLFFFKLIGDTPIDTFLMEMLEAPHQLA

[3] = biological target: T2, RXRα (Homo sapiens, UniProt P19793); experiment: Co-transfection assay, RXRα agonist activity; settings: CV-1 cells, 40 hours; read-out: RXRα Pot (potency, EC50)
T2 construct: expressed in transfected cells; host or cells: CV-1 (African green monkey kidney fibroblasts)
T2 sequence (P19793 1-462): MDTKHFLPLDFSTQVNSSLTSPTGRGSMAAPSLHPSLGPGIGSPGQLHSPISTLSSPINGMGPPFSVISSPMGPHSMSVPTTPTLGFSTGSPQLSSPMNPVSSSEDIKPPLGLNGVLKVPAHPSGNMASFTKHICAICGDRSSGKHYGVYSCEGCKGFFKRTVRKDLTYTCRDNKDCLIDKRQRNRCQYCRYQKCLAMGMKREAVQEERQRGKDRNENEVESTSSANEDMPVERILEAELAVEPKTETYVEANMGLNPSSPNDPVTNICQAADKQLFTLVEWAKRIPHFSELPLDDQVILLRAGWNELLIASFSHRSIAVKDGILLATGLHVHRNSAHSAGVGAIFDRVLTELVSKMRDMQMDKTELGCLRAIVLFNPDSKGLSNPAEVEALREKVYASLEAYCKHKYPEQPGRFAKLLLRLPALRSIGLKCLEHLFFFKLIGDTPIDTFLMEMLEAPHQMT

EC50 [2]: 20 nM
EC50 [3]: 18 nM
Structure (SMILES): CC(/C=C/C=C1/CC(C)(C)Oc2cc3c(cc21)C(C)(C)CCC3(C)C)=C\C(=O)O [Compound 104b, (2E,4E)-3-Methyl-6-(2,3,6,7,8,9-hexahydro-2,2,6,6,9,9-hexamethylbenzo[b]-chromen-4-ylidene)-hexa-2,4-dienoic acid]
RXR activity / selectivity (in words) [1]: potent and selective RXR compound
